Measurements: US20250114415A1, “METHOD FOR LOWERING CHOLESTEROL AND LIPID LEVELS USING THE ANTRODIA CINNAMOMEA WATER-INSOLUBLE DIETARY FIBER” (UNIVERSITY OF SHANGHAI FOR SCIENCE AND TECHNOLOGY, priority 2020, published 2025)
Marks after values point to notes of the source that are not given here.

How the values were obtained:
[1] = test system: mice fed with high-fat feed; assay: Lipid-lowering function test (animal test): serum lipids (HDL-C, LDL-C) of mice on high-fat feed; assay type: in vivo, C57BL/6 mice; conditions: gavage, 8 weeks
Procedure: Samples: The water-insoluble dietary fiber component ACA-DK of Antrodia cinnamomea, which is prepared as a suspension of a certain concentration and placed at 4° C. for further use.
Test animals: 40 C57BL/6 SPF-grade mice weighing 18-22 g were purchased from Shanghai JieSijie Experimental Animal Co., Ltd. (license No. SCXK20180004). They were randomly divided into 4 groups with 10 mice in each group.
Test method: In test environment, the mice were divided into the following 4 groups: Normal group NG (gavage with normal saline), model group MG (high-fat diet), positive control group PG (gavage with lovastatin) and insoluble dietary fiber group LG. Mice in normal group NG were fed with basic feed, and mice in the rest of the groups were fed with high-fat feed. For mice in insoluble dietary fiber group LG, gavage with the dietary fiber was administered once a day for 8 weeks.
Feeding conditions: Mice were raised in an IVC system with a temperature of 18-22° C. and a relative humidity of 40-70%. License No. of the laboratory animal using license is SCXK20180004. The irradiated sterile feed for mice was purchased from Jiangsu Synergy Pharmaceutical Bioengineering Co., Ltd.
Basic feed: Flour 20%, bran 25%, corn 20%, rice flour 10%, soybean meal 20%, fish meal 2%, bone meal 2%, salt 0.9%, vitamin 0.1%;
High-fat feed: Lard 10%, sucrose 5%, cholesterol 1%, bile salt 0.3%, basic feed 83.7%. […]

[2] = test system: mice fed with high-fat feed; assay: Lipid-lowering function test (animal test): TG and TC of mice on high-fat feed; assay type: in vivo, C57BL/6 mice; conditions: gavage, 8 weeks
Text: SPSS 22.0 Software was used to statistically analyze the original data of each experiment, and the ANOVA program was used to test the significance of the data.

CC[C@H](C)C(=O)O[C@H]1C[C@@H](C)C=C2C=C[C@H](C)[C@H](CC[C@@H]3C[C@@H](O)CC(=O)O3)[C@H]21 [lovastatin]
HDL-C [1]: 2.45 ± 0.20 ^D mmol/L | LDL-C [1]: 7.73 ± 3.07 ^b mmol/L | TC [2]: 0.024 ± 0.005 ^a mmol/g prot | TG [2]: 0.031 ± 0.019 ^B mmol/g prot
